Assay results as given in patent US5795615A, “Process for producing metal carboxylates for use as animal feed supplements” (priority 1995, dated 1998).

Experiments:
[1] = Comparative zinc bioavailability: growth parameters and zinc levels in blood and tibia ash of broilers; conditions: for Relative Biological Availability (%): Ending body weight (lbs) 21 days / Relative Biological Availability (%): Body weight gain (lbs) 21 days: broilers fed 21 days; for Relative Biological Availability (%): Ending body weight (lbs) 21 days: relative to zinc sulfate arbitrarily set at 100%, superscripts: means in a row without common superscript differ (P < 0.05, LSD)
Procedure: Each zinc treatment was replicated eight times and each pen contained ten male birds.
Basal feeds and zinc compound were mixed in a horizontal feed mixer providing the desired ingredient composition as shown in Table 4. The broilers were fed the rations for 21 days. Feed weights were taken during the trial. Body weights were measured at the beginning and at the end of the trial. On day 21, zinc levels in the blood and tibia ash were determined. The assay procedures for total tibia zinc content or concentration to assess zinc utilization are similar to those used by Wedekind et al., J. Anim. Sci., 70:178-187 (1992). The data were analyzed according to the SAS statistical package.
Chick growth parameters and zinc levels in the blood and tibia ash were used as criteria to determine the biological availability of zinc. […] The biological availability of zinc sulfate was arbitrarily set at 100%.

[2] = cited from earlier work
[3] = relative to zinc sulfate set at 100%, superscripts: P < 0.05, LSD
[4] = broilers, relative to zinc sulfate set at 100%, superscripts: P < 0.05, LSD
[5] = broilers, day 21, relative to zinc sulfate set at 100%, superscripts: P < 0.05, LSD

SMILES	Relative Biological Availability (%): Ending body weight (lbs) 21 days [1] [%]	Relative Biological Availability (%): Body weight gain (lbs) 21 days [1, 3] [%]	Relative Biological Availability (%): Feed conversion (corr.) 3-21 days [1, 4] [%]	Relative Biological Availability (%): Bone ash (%) 21 days [1, 5] [%]	Relative Biological Availability (%): Plasma Zinc (μg/ml) ([1]; chicken, in vivo, 30240 min) [%]	Relative Biological Availability (%): Tibia ash zinc (μg/g) ([1]; chicken, in vivo, 30240 min) [%]	solubility in water [2] [g/100 ml]	ending body weights compared with zinc sulfate ([1]; both the 10 mg/kg and 20 mg/kg levels)	Relative Biological Availability (%): Plasma Zinc (μg/ml) ([1]; broilers, day 21, plasma, relative to zinc sulfate set at 100%, superscripts: P < 0.05, LSD) [%]	Relative Biological Availability (%): Tibia ash zinc (μg/g) ([1]; broilers, day 21, tibia ash, relative to zinc sulfate set at 100%, superscripts: P < 0.05, LSD) [%]	levels of zinc in the blood and tibia ash on day 21 ([1]; day 21, zinc propionate versus zinc methionine)
O=S(=O)([O-])[O-].[Zn+2] [Sulfate, zinc sulfate, reference compound]	100.00	100.00	100.00	100.00	100.00	100.00					
[O]=[Zn] [Zinc oxide, zinc oxide]							0.00016				
CSCC[C@H](N)C(=O)O.O=S(=O)([O-])O.O=S(=O)([O-])O.[Zn+2] [Zinpro ®, Zinc methionine bisulfate]	132.46	131.52	90.38	113.95				statistically significant higher ending body weights	124.00	123.99	comparable levels of zinc
